Experiments:
[1] = UV-vis absorbance of disperse dyes dissolved in acetone (reference); format: physicochemical; conditions: dye concentration 50 mg/l
cutinase = conditions: Table 3
Protocol: 5 mg/ml dye stock (suspension in 20 mM pH8 phosphate buffer) was made for each commercial dye. Since the absorbance of an opaque dye suspension cannot be detected by UV-vis spectrometer, these fives dyes were dissolved in acetone in the concentration of 50˜100 mg/L and the absorbance of each dye solution was measured as reference (see Table 1).
After 10 min. preheating in waterbath, each sample was dosed with 62.5 mg/L cutinase and incubated for 10 min. The samples were then taken out for UV-vis measurement.

[2] = Alkaline (NaOH) treatment of disperse dye suspension, UV-vis absorbance of solubilized dye; format: physicochemical; design: key: #: Means absorbance was not detectable by UV-vis spectrometer due to the turbidity of the suspension; conditions: in water, [Dye] = 50 mg/L, Table 3
Protocol: This procedure was repeated for the alkaline treatment at 80° C.

## CCC(=O)Nc1cc(N(CCOC(C)=O)CCOC(C)=O)ccc1N=Nc1ccc([N+](=O)[O-])cc1Cl [Disperse Red 167]
[1]
  Abs@λ max: 1.23
cutinase; cutinase treated
  effect of cutinase treatment on dye solubility (in words): increase in dye solubility
cutinase; in water, [Dye] = 50 mg/L, λ_max 480 nm
  Cutinase Treated (70 C.) Abs@λ_max: 0.4249 AU
[2]; 70 C.
  NaOH Treated (70 C.) Abs@λ_max: #
[2]; 80 C.
  NaOH Treated (80 C.) Abs@λ_max: #

From patent US6890361B2, “Modification of printed and dyed materials” (Novozymes North America, Inc., priority 2001, dated 2005)
